Results as given in US10085998B2, “Salts of potassium ATP channel openers and uses thereof” (Essentialis, Inc., priority 2006, dated 2018).
Entries after “also recorded” stand apart in the source; their conditions may differ. Structures can show the parent of a compound that is named as a salt. Where two headings read alike, the source gives them in different places.

Columns and labels:
[1] = Excipient compatibility study for diazoxide choline salt; type: physicochemical; conditions: excipient 100 mg + diazoxide choline salt 100 mg
[2] = Moisture sorption analysis; type: physicochemical; conditions: for Moisture sorption: hygroscopicity: relative humidity scan; for XRPD pattern following the moisture sorption/desorption analysis: after moisture sorption experiment; for Hysteresis upon desorption / hydrate formation: desorption scan
Protocol: Moisture Sorption Analysis was performed with a Hiden IGAsorp Moisture Sorption Instrument. Samples were first dried at 0% relative humidity at 25° C. until an equilibrium weight was reached, or for a maximum of 4 hours. Samples were then subjected to an isothermal (25° C.) scan from 10-90% relative humidity in steps of 10%. The samples were allowed to equilibrate to an asymptotic weight at each point for a maximum of 4 hours. Following absorption, a desorption scan from 85% relative humidity (at 25° C.) was run in steps of −10%, again allowing a maximum of 4 hours for the samples to equilibrate. The resulting samples after desorption were dried at 80° C. for two hours and analyzed by XRPD.

[3] = Form conversion and degradation under thermal stress; conditions: for Thermal stability of form: 7 days
Protocol: Studies were also conducted to evaluate the likelihood for conversion and degradation under thermal stress.

[4] = Slurry studies (inter-conversion of the solid form); conditions: for Slurry study: conversion of solid form: dichloromethane (CH2Cl2) and toluene, 7 and 14 days; for Slurries: conversion of solid form: 50/50 mixtures of Forms C, D and F in ethyl acetate, acetonitrile and isopropanol, room temperature
Protocol: Slurry experiments were performed on each form to determine propensity for conversion and to see if a unique form could be generated.

[5] = Solubility measurements at pH 2, 7 and 12 in phosphate buffer; conditions: solids after solubility analysis (choline salt: pH 2 and 7 only)
Protocol: (§1) Solubility concentrations were determined using area-percent calculations with HPLC calibration curves.

[6] = all physiological relevant pH values from pH 2.0 to pH 8.5; deionized water, buffered aqueous solutions
Protocol: UV spectroscopy was performed with a Perkin-Elmer Lambda 25 spectrometer. Samples were dissolved in acetonitrile, water and a buffer system having a pH between 5.6 and 10. Spectra were acquired between 340 and 190 nm, using a 1 cm path length with background correction.

[7] = pH 2
Protocol: as §1

[8] = Crystallization screening for polymorphic forms (single/binary solvent, fast/slow cooling, XRPD); type: physicochemical
physchem = conditions: thermodynamic from solid
Protocol: as §1

[9] = Solubility screen of diazoxide potassium salt in various solvents; type: physicochemical
Excerpt: Solvents affording poor to fair solubility were used as antisolvents in binary/ternary crystallizations as well as slurry studies. Table 29 summarizes the results of the solubility screen.

[10] = 60° C., closed, protected from light, 7 and 14 days
[11] = 25° C., listed as Choline diazoxide salt
[12] = 25° C., listed as Potassium diazoxide salt

With CC1=Nc2ccc(Cl)cc2S(=O)(=O)N1 [Diazoxide Control] the “1 Month 40° C./75% RH % (w/w)” value ([1]; one-month storage 40° C./75% RH) was 99.0 % (w/w) and the “1 Month 50° C. % (w/w)” value ([1]; one-month storage 50° C.) was 99.4 % (w/w).

With CC1=Nc2ccc(Cl)cc2S(=O)(=O)[N-]1.C[N+](C)(C)CCO [Form A] the “Moisture sorption: hygroscopicity” value ([2]; 25° C.) was “Hygroscopic - deliquesced”, the “Water absorbed at 60% RH” value ([2]; 25° C.) was 2.4 wt % and the “XRPD pattern following the moisture sorption/desorption analysis” value [2] was “consistent with Form A”. The “Form conversion and degradation under thermal stress (XRPD, DSC)” value (shortened to “Form conversion and degradation”) [3, 10] was “Started to convert to Form” and the “Slurry study: conversion of solid form” value ([4]; n-heptane) was “conversion to Form B was observed after seven days; also recorded: Converted to Form B after”.

In the case of CC1=Nc2ccc(Cl)cc2S(=O)(=O)[N-]1.C[N+](C)(C)CCO [Form B], the “Moisture sorption: hygroscopicity” value ([2]; 25° C.) is reported as “Hygroscopic - deliquesced”, the “Water absorbed at 60% RH” value ([2]; 25° C.) is reported as 7.4 wt % and the “XRPD pattern following the moisture sorption/desorption analysis” value [2] is reported as “remained in the Form B crystal structure”. The “XRPD pattern of the solids obtained after the solubility analysis” value (shortened to “XRPD pattern of the solids obtained”) [5] was “Form B of the choline salt of diazoxide was still present”, the “Form conversion and degradation” value [3, 10] was “Stable after 14 days at” and the “Slurry study: conversion of solid form” value ([4]; n-heptane) was “form conversion was not observed”.

For CC1=Nc2ccc(Cl)cc2S(=O)(=O)[N-]1.CC1=Nc2ccc(Cl)cc2S(=O)(=O)[N-]1.O.[K+].[K+] [Form D], the “Moisture sorption: hygroscopicity” value ([2]; 25° C.) was “hygroscopic; also recorded: Hygroscopic -”, the “XRPD pattern following the moisture sorption/desorption analysis” value [2] was “consistent with Form D” and the “Thermal stability of form” value ([3]; 60° C.) was “Stable (7 days)”. For the same molecule, the “Slurries: conversion of solid form” value [4] was “conversion to Form D was observed in all solvents; also recorded: Converted to Form D”.

For C1COCCO1.CC1=Nc2ccc(Cl)cc2S(=O)(=O)[N-]1.CC1=Nc2ccc(Cl)cc2S(=O)(=O)[N-]1.[K+].[K+] [Form F], the “Moisture sorption: hygroscopicity” value ([2]; 25° C.) was “hygroscopic”, the “XRPD pattern following the moisture sorption/desorption analysis” value [2] was “consistent with Form D” and the “Thermal stability of form” value ([3]; 60° C.) was “Stable (7 days)”. For the same molecule, the “Slurries: conversion of solid form” value [4] was “conversion to Form D was observed in all solvents; also recorded: Converted to Form D”.

For CC1=Nc2ccc(Cl)cc2S(=O)(=O)[N-]1.C[N+](C)(C)CCO [choline salt of diazoxide], the “Hysteresis upon desorption / hydrate formation” value ([2]; 25° C.) was “does not form a stable hydrate”, the “Hysteresis upon desorption / hydrate formation” value [2, 11] was “no hysteresis” and the “Moisture sorption: hygroscopicity” value ([2]; 25° C.) was “hygroscopic”. For the same molecule, the “Moisture sorption: hygroscopicity” value [2, 11] was “deliquescent -”, the “Water absorbed at 80% RH” value ([2]; 25° C.) was “over 28 wt %” and the “XRPD pattern following the moisture sorption/desorption analysis” value [2] was “changed to an alternate crystalline form”. The “Fate of the salt in aqueous medium (UV/Vis absorbance)” value [6] was “hydrolyzes to the free base of diazoxide and choline hydroxide”, the “Degradation by HPLC after thermal stress” value [3] was “did not show any significant degradation” and the “Form conversion and degradation” value [3] was “consistent with the starting material, as well as the presence of additional unique peaks”. The “XRPD pattern of the solids obtained” value [7] was “changed back to the free form diazoxide material” and the “Slurry study: conversion of solid form” value ([4]; n-heptane, listed as Choline diazoxide salt) was “no propensity of inter-conversion”.

In the case of CC1=NS(=O)(=O)c2cc(Cl)ccc2N1 [potassium salt of diazoxide], the Form ([8]; XRPD, single-solvent, fast-cooling, MeCN, 42.40 mg/mL, 80 ° C.) is reported as “C +”, the Precipitate ([8]; binary-solvent, fast-cooling, McCN 0.6 mL (dissolved at 80° C.), anti-solvent CH2Cl2 1.0 mL) is reported as “Yes” and the Precipitate ([8]; binary-solvent, fast-cooling, McCN 0.6 mL (dissolved at 80° C.), anti-solvent Dioxane 6.0 mL) is reported as “Yes”. The Precipitate ([8]; binary-solvent, fast-cooling, McCN 0.6 mL (dissolved at 80° C.), anti-solvent EtOAc 6.0 mL) was “Yes”, the Precipitate ([8]; binary-solvent, fast-cooling, McCN 0.6 mL (dissolved at 80° C.), anti-solvent Heptane 2.0 mL) was “Yes” and the Precipitate ([8]; binary-solvent, fast-cooling, McCN 0.6 mL (dissolved at 80° C.), anti-solvent IPAc 3.0 mL) was “Yes”. For the same molecule, the Precipitate ([8]; binary-solvent, fast-cooling, McCN 0.6 mL (dissolved at 80° C.), anti-solvent MTBE 1.0 mL) was “Yes”, the Precipitate ([8]; binary-solvent, fast-cooling, McCN 0.6 mL (dissolved at 80° C.), anti-solvent THF 6.0 mL) was “No/Evap” and the Precipitate ([8]; binary-solvent, fast-cooling, McCN 0.6 mL (dissolved at 80° C.), anti-solvent Toluene 1.0 mL) was “Yes”. The Precipitate ([8]; binary-solvent, fast-cooling, McCN 0.6 mL (dissolved at 80° C.), anti-solvent c-Hexane 2.0 mL) was “Yes”, the Precipitate ([8]; single-solvent, fast-cooling, Acetone, 10.35 mg/mL, 55 ° C.) was “No/Evap” and the Precipitate ([8]; single-solvent, fast-cooling, EtOAc, 3.52 mg/mL, 75 ° C.) was “Yes”. The Precipitate ([8]; single-solvent, fast-cooling, IPA, 75.67 mg/mL, 62 ° C.) was “Yes”, the Precipitate ([8]; single-solvent, fast-cooling, MeCN, 42.40 mg/mL, 80 ° C.) was “Yes” and the Precipitate ([8]; single-solvent, fast-cooling, Water, 13.73 mg/mL, 95 ° C.) was “Yes”. For the same molecule, the Precipitate ([8]; single-solvent, fast-cooling, i-AmOH, 65.67 mg/mL, 73 ° C.) was “Yes”, the Precipitate ([8]; single-solvent, fast-cooling, t-AmOH, 8.76 mg/mL, 95 ° C.) was “Yes” and the Precipitate ([8]; single-solvent, slow-cooling, IPA, 71.67 mg/mL, 80 ° C.) was “No/Evap”. For the same molecule, the Precipitate ([8]; single-solvent, slow-cooling, MeCN, 45.60 mg/mL, 80 ° C.) was “Yes”, the Precipitate ([8]; single-solvent, slow-cooling, i-AmOH, 68.67 mg/mL, 80 ° C.) was “Yes” and the “Hysteresis upon desorption / hydrate formation” value ([2]; 25° C.) was “hemihydrate from 0-30% RH and a monohydrate from 35-75% RH”. For the same molecule, the “Hysteresis upon desorption / hydrate formation” value [2, 12] was “hemi/monohydrate”, the “Moisture sorption: hygroscopicity” value ([2]; 25° C.) was “hygroscopic” and the “Moisture sorption: hygroscopicity” value [2, 12] was “deliquescent -”. The “Water absorbed at 60% RH” value ([2]; 25° C.) was 5.4 wt %, the “Water absorbed at 90% RH” value ([2]; 25° C., 90% RH) was 38.3 wt % and the “XRPD pattern following the moisture sorption/desorption analysis” value [2] was “changed to an alternate crystalline form”. For the same molecule, the solubility (physchem; pH 2, aqueous buffer) was 9.9 mg/mL, the solubility (physchem; pH 7, aqueous buffer) was 14.4 mg/mL and the solubility (physchem; pH 12, aqueous buffer) was 43 mg/mL. For the same molecule, the Conc. ([9]; solvent Acetone, 55 ° C., 1.6 mg in 4.00 mL) was 400 µg/mL, the Soluble ([9]; solvent Acetone, 55 ° C., at 0.40 mg/mL) was “Yes” and the Conc. ([9]; solvent CH2Cl2, 55 ° C., 1.3 mg in 5.00 mL) was 260 µg/mL. For the same molecule, the Soluble ([9]; solvent CH2Cl2, 55 ° C., at […]) was “No”, the Conc. ([9]; solvent DMF, rt, 1.6 mg in 0.25 mL) was greater than 6400 µg/mL and the Soluble ([9]; solvent DMF, rt, at >6.40 mg/mL) was “Yes”. For the same molecule, the Conc. ([9]; solvent Dioxane, 55 ° C., 1.4 mg in 5.00 mL) was 280 µg/mL, the Soluble ([9]; solvent Dioxane, 55 ° C., at […]) was “No” and the Conc. ([9]; solvent EtOAc, 55 ° C., 1.8 mg in 5.00 mL) was 360 µg/mL. For the same molecule, the Soluble ([9]; solvent EtOAc, 55 ° C., at […]) was “No”, the Conc. ([9]; solvent EtOH, 55 ° C., 2.2 mg in 0.75 mL) was 2930 µg/mL and the Soluble ([9]; solvent EtOH, 55 ° C., at […]) was “Yes”. The Conc. ([9]; solvent Heptane, 55 ° C., 1.2 mg in 5.00 mL) was 240 µg/mL, the Soluble ([9]; solvent Heptane, 55 ° C., at 0.24 mg/mL) was “No” and the Conc. ([9]; solvent IPA, 55 ° C., 2.1 mg in 1.00 mL) was 2100 µg/mL. The Soluble ([9]; solvent IPA, 55 ° C., at […]) was “Yes”, the Conc. ([9]; solvent IPAc, 55 ° C., 1.7 mg in 5.00 mL) was 340 µg/mL and the Soluble ([9]; solvent IPAc, 55 ° C., at […]) was “No”. For the same molecule, the Conc. ([9]; solvent MEK, 55 ° C., 1.5 mg in 5.00 mL) was 300 µg/mL, the Soluble ([9]; solvent MEK, 55 ° C., at 0.30 mg/mL) was “Partially” and the Conc. ([9]; solvent MTBE, 55 ° C., 1.8 mg in 5.00 mL) was 360 µg/mL. For the same molecule, the Soluble ([9]; solvent MTBE, 55 ° C., at […]) was “No”, the Conc. ([9]; solvent MeCN, 55 ° C., 1.7 mg in 2.00 mL) was 850 µg/mL and the Soluble ([9]; solvent MeCN, 55 ° C., at 0.85 mg/mL) was “Yes”. The Conc. ([9]; solvent MeOH, 55 ° C., 1.5 mg in 0.25 mL) was 6000 µg/mL, the Soluble ([9]; solvent MeOH, 55 ° C., at 6.00 mg/mL) was “Yes” and the Conc. ([9]; solvent THF, 55 ° C., 1.8 mg in 5.00 mL) was 360 µg/mL. For the same molecule, the Soluble ([9]; solvent THF, 55 ° C., at […]) was “Partially”, the Conc. ([9]; solvent Toluene, 55 ° C., 1.4 mg in 5.00 mL) was 280 µg/mL and the Soluble ([9]; solvent Toluene, 55 ° C., at […]) was “No”. For the same molecule, the Conc. ([9]; solvent Water, 55 ° C., 1.5 mg in 5.00 mL) was 300 µg/mL, the Soluble ([9]; solvent Water, 55 ° C., at 0.30 mg/mL) was “No” and the Conc. ([9]; solvent c-Hexane, 55 ° C., 1.5 mg in 5.00 mL) was 300 µg/mL. For the same molecule, the Soluble ([9]; solvent c-Hexane, 55 ° C., at 0.30 mg/mL) was “No”, the “Degradation by HPLC after thermal stress” value ([3]; 60° C., 14 days, gradient area percent assay) was “did not show any significant degradation” and the “Form conversion and degradation” value [3, 10] was “showed unique peaks”. For the same molecule, the “XRPD pattern of the solids obtained” value [7] was “changed back to the free form diazoxide material”, the “Slurry study: conversion of solid form” value ([4]; n-heptane) was “no propensity of inter-conversion” and the “Degradation by HPLC after slurry study” value ([4]; n-heptane, dichloromethane, toluene, gradient area percent assay) was “did not show any significant degradation”.

For CC1=Nc2ccc(Cl)cc2S(=O)(=O)[N-]1.[Na+] [sodium salt of diazoxide], the “Hysteresis upon desorption / hydrate formation” value ([2]; 25° C.) was “possible hydrate formation”, the “Moisture sorption: hygroscopicity” value ([2]; 25° C.) was “hygroscopic” and the “Moisture sorption: hygroscopicity” value ([2]; 25° C., listed as Sodium diazoxide salt) was “deliquescent -”. For the same molecule, the “Water absorbed at 60% RH” value ([2]; 25° C.) was 1.2 wt %, the “Water absorbed at 80% RH” value ([2]; 25° C.) was 6.6 wt % and the “Form conversion and degradation” value [3, 10] was “little propensity to change form or degrade”. The “Slurry study: conversion of solid form” value ([4]; n-heptane) was “no propensity of inter-conversion”.
